Experimental data reported in ChEMBL document CHEMBL4020826 (J Med Chem, 2018).

How the values were obtained:
[1] = Drug level in Sprague-Dawley rat CSF at 5 mg/kg/day, sc administered via infusion measured after 72 hrs post dose by LC-MS/MS analysis; type: ADME, organism-based, Cerebrospinal fluid; settings: read-out: Drug uptake
[2] = Plasma concentration in Sprague-Dawley rat at 5 mg/kg/day, sc administered via infusion measured after 6 hrs post dose by LC-MS/MS analysis; type: ADME, organism-based
[3] = Plasma concentration in Sprague-Dawley rat at 15 mg/kg/day, sc administered via infusion measured after 6 hrs post dose by LC-MS/MS analysis; type: ADME, organism-based
[4] = Plasma concentration in Sprague-Dawley rat at 15 mg/kg/day, sc administered via infusion measured after 72 hrs post dose by LC-MS/MS analysis; type: ADME, organism-based
[5] = Drug level in Sprague-Dawley rat CSF at 0.1 mg/kg, sc administered as single dose measured after 1 hr post dose by LC-MS/MS analysis; type: ADME, organism-based, Cerebrospinal fluid; settings: read-out: Drug uptake
[6] = biological target: CYP2C9 (Homo sapiens, UniProt P11712); assay: Inhibition of human CYP2C9 at 10 uM; type: ADME
[7] = Plasma concentration in Sprague-Dawley rat at 0.5 mg/kg/day, sc administered via infusion measured after 12 hrs post dose by LC-MS/MS analysis; type: ADME, organism-based
[8] = biological target: CYP2D6 (Homo sapiens, UniProt P10635); assay: Inhibition of human CYP2D6 at 10 uM; type: ADME
CYP2D6, sequence (P10635 whole entry): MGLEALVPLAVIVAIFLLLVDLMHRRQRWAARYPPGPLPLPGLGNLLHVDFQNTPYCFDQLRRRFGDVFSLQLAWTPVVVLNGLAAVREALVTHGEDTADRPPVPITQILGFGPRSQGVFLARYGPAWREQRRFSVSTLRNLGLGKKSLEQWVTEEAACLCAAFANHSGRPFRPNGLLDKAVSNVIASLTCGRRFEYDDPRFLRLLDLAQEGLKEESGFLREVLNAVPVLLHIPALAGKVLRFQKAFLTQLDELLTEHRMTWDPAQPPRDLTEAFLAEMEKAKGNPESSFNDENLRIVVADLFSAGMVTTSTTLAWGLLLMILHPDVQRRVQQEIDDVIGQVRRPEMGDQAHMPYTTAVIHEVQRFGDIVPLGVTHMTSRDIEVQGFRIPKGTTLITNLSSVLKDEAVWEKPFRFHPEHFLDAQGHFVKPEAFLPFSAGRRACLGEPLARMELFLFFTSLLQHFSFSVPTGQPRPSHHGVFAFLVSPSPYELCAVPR

[9] = Clearance in Sprague-Dawley rat at 1 mg/kg, iv measured over 8 hrs by LC-MS/MS analysis; type: ADME, organism-based; settings: in vivo
[10] = Drug level in Sprague-Dawley rat CSF at 3 mg/kg, sc administered as single dose measured after 1 hr post dose by LC-MS/MS analysis; type: ADME, organism-based, Cerebrospinal fluid; settings: read-out: Drug uptake
[11] = biological target: Metabotropic glutamate receptor 7 (Homo sapiens, UniProt Q14831); assay: Agonist activity at recombinant human mGlu7 receptor expressed in hamster AV12 cells co-expressing rat EAAT1/Galpha15 assessed as induction of increase in Ca2+ flux after 2.5 mins by Fluo-3 AM dye-based FLIPR assay; type: functional, cell-based
Metabotropic glutamate receptor 7, sequence (Q14831 whole entry): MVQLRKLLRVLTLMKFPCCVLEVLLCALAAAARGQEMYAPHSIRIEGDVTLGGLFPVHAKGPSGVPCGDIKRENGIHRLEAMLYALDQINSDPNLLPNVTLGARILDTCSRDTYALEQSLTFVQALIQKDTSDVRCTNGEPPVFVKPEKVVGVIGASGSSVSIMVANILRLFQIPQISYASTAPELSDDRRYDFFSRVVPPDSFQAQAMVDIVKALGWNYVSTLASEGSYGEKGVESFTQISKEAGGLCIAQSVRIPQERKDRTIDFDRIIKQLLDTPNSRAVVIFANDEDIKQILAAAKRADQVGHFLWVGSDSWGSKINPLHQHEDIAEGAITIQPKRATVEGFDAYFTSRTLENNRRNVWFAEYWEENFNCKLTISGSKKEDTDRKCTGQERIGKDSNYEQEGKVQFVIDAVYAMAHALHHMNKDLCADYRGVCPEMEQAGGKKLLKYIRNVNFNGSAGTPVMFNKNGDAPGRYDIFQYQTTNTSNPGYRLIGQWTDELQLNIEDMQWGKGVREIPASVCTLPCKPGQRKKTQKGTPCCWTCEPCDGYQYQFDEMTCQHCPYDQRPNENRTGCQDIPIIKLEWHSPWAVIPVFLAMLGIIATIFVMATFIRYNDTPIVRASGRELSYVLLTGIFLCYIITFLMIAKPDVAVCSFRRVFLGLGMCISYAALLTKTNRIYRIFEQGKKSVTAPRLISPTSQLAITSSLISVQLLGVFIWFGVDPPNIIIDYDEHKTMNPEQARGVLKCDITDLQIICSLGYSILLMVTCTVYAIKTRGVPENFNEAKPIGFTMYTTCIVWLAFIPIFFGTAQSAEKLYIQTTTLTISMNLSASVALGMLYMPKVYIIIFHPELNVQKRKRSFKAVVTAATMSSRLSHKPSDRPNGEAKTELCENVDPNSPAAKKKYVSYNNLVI

[12] = biological target: T1, Metabotropic glutamate receptor 2 (Homo sapiens, UniProt Q14416); assay: Agonist activity at recombinant human mGlu2 receptor expressed in hamster AV12 cells co-expressing rat EAAT1/Galpha15 assessed as induction of increase in Ca2+ flux after 2.5 mins by Fluo-3 AM dye-based FLIPR assay
T1 sequence (Q14416 whole entry, the tested form may be a part): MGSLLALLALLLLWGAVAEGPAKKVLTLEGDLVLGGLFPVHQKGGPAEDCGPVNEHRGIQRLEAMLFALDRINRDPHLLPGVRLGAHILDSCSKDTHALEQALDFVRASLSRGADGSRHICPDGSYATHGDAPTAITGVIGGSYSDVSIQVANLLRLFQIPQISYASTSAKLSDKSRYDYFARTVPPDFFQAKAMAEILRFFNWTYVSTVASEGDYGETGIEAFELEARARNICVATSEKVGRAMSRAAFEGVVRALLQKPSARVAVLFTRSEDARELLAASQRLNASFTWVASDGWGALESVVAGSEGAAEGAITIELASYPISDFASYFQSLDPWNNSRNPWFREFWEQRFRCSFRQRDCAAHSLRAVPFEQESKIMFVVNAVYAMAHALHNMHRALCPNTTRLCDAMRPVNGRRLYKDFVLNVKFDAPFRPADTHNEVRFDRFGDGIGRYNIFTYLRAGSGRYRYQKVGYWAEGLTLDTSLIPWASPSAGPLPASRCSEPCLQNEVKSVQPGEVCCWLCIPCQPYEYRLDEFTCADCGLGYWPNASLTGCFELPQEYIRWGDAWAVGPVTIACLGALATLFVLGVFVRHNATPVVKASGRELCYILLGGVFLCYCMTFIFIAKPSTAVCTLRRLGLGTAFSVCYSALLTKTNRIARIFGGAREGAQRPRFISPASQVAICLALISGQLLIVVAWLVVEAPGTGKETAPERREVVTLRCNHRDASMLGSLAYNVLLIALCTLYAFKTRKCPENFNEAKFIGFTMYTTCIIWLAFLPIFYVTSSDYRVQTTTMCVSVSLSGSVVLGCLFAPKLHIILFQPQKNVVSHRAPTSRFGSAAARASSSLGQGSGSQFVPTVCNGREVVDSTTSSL

[13] = Plasma concentration in Sprague-Dawley rat at 0.5 mg/kg/day, sc administered via infusion measured after 6 hrs post dose by LC-MS/MS analysis; type: ADME, organism-based
[14] = Drug level in Sprague-Dawley rat CSF at 0.5 mg/kg/day, sc administered via infusion measured after 72 hrs post dose by LC-MS/MS analysis; type: ADME, organism-based, Cerebrospinal fluid; settings: read-out: Drug uptake
[15] = biological target: Metabotropic glutamate receptor 5 (Homo sapiens, UniProt P41594); assay: Antagonist activity at recombinant human mGlu5 receptor expressed in hamster AV12 cells co-expressing rat EAAT1/Galpha15 assessed as inhibition of glutamate induced increase in Ca2+ flux after 2.5 mins by Fluo-3 AM dye-based FLIPR assay; type: functional, cell-based
Metabotropic glutamate receptor 5, sequence (P41594 whole entry): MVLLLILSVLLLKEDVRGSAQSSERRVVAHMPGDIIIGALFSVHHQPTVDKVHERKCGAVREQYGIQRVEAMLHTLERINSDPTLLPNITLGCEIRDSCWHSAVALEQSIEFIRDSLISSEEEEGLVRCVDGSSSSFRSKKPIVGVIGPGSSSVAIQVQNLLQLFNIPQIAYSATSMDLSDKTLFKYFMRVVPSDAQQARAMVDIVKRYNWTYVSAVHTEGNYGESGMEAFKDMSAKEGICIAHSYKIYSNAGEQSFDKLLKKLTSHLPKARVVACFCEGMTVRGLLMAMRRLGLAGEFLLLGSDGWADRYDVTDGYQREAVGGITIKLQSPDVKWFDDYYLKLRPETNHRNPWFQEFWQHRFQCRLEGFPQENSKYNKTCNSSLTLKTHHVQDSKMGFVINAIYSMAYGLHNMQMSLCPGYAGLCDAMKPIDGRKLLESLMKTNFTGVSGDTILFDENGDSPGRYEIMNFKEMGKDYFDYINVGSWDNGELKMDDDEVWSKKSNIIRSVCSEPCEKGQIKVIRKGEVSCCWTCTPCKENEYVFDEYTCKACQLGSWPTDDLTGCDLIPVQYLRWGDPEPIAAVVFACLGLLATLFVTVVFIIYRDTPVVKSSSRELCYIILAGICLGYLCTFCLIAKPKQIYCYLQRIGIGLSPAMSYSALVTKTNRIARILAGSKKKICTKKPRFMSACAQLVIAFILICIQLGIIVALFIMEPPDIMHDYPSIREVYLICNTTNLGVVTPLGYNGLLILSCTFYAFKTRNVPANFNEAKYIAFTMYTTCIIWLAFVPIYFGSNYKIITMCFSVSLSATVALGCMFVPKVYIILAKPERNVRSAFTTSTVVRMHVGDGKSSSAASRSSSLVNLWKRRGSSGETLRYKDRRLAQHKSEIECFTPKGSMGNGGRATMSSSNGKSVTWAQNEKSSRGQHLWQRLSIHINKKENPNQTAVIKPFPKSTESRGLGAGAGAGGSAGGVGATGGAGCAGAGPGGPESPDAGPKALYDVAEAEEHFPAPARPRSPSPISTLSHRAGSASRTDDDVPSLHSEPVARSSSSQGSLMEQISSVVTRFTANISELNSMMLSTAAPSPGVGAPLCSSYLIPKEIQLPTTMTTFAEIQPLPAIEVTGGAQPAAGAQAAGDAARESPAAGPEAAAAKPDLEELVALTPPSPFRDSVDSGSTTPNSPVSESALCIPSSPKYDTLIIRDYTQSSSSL

[16] = Plasma concentration in Sprague-Dawley rat at 1 mg/kg, sc administered as single dose measured after 1 hr post dose by LC-MS/MS analysis; type: ADME, organism-based
[17] = Plasma concentration in Sprague-Dawley rat at 1.5 mg/kg/day, sc administered via infusion measured after 72 hrs post dose by LC-MS/MS analysis; type: ADME, organism-based
[18] = Fraction unbound in rat plasma; type: ADME, cell-free
[19] = biological target: Voltage-gated inwardly rectifying potassium channel KCNH2 (Homo sapiens, UniProt Q12809); assay: Displacement of [3H]-dofetilide from human ERG
[20] = Plasma concentration in Sprague-Dawley rat at 15 mg/kg/day, sc administered via infusion measured after 24 hrs post dose by LC-MS/MS analysis; type: ADME, organism-based
[21] = AUC in Sprague-Dawley rat at 1 mg/kg, iv measured over 8 hrs by LC-MS/MS analysis; type: ADME, organism-based; design: time < 8 hr, dose 1 mg/kg, route intravenous; settings: in vivo
[22] = biological target: T1, Metabotropic glutamate receptor 2; assay: Displacement of [3H]-LY459477 from recombinant human mGlu2 receptor expressed in HEK cell membranes after 90 mins by liquid scintillation counting
[23] = Plasma concentration in Sprague-Dawley rat at 0.5 mg/kg/day, sc administered via infusion measured after 48 hrs post dose by LC-MS/MS analysis; type: ADME, organism-based
[24] = tested on: Rattus norvegicus; assay: Toxicity in Sprague-Dawley rat assessed as reduction in spontaneous locomotive activity at 30 mg/kg, sc after 30 mins; type: organism-based; design: scale not given: the % may be the effect or the level left; settings: in vivo, 0.5 h
[25] = Plasma concentration in Sprague-Dawley rat at 1.5 mg/kg/day, sc administered via infusion measured after 6 hrs post dose by LC-MS/MS analysis; type: ADME, organism-based
[26] = species: Rattus norvegicus; assay: Drug metabolism in Sprague-Dawley rat assessed as (1S,2S,4S,5R,6S)-2-Amino-4-[(3-hydroxybenzoyl)amino]-bicyclo[3.1.0]hexane-2,6-dicarboxylic Acid formation measured over 24 hrs; type: ADME
[27] = Plasma concentration in Sprague-Dawley rat at 5 mg/kg/day, sc administered via infusion measured after 72 hrs post dose by LC-MS/MS analysis; type: ADME, organism-based
[28] = biological target: Metabotropic glutamate receptor 8 (Homo sapiens, UniProt O00222); assay: Antagonist activity at recombinant human mGlu8 receptor expressed in hamster AV12 cells co-expressing rat EAAT1/Galpha15 assessed as inhibition of glutamate induced increase in Ca2+ flux after 2.5 mins by Fluo-3 AM dye-based FLIPR assay; type: functional, cell-based
Metabotropic glutamate receptor 8, sequence (O00222 whole entry, the tested form may be a part): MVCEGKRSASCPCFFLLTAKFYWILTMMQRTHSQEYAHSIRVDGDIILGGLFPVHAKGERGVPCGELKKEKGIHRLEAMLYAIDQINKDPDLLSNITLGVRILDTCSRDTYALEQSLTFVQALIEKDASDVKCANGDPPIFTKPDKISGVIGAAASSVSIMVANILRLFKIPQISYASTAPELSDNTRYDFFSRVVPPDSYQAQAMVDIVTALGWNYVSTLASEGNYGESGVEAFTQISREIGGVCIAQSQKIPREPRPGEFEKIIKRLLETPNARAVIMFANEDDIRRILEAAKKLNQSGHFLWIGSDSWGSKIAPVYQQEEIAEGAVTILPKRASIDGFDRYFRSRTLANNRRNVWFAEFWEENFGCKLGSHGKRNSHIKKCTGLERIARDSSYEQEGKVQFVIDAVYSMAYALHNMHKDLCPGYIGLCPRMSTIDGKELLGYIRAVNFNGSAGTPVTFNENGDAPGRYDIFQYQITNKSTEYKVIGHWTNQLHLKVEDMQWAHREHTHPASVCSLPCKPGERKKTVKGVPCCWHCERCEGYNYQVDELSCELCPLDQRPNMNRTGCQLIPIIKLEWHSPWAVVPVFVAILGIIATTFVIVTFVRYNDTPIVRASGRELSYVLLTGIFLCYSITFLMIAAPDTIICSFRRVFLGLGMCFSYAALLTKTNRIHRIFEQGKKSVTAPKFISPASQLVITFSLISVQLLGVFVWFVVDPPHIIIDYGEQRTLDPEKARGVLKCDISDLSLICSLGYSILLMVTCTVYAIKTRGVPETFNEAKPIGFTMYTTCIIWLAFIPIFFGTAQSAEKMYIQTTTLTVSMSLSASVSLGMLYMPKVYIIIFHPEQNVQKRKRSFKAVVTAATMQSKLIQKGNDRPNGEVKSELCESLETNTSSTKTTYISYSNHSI

[29] = Drug level in Sprague-Dawley rat CSF at 1.5 mg/kg/day, sc administered via infusion measured after 72 hrs post dose by LC-MS/MS analysis; type: ADME, organism-based, Cerebrospinal fluid; settings: read-out: Drug uptake
[30] = tested on: Rattus norvegicus; assay: Toxicity in Sprague-Dawley rat assessed as reduction in spontaneous locomotive activity at 30 mg/kg, sc after 90 mins; type: organism-based; design: scale not given: the % may be the effect or the level left; settings: in vivo, 1.5 h
[31] = AUC in Sprague-Dawley rat at 3 mg/kg, sc measured over 8 hrs by LC-MS/MS analysis; type: ADME, organism-based; design: dose 3 mg/kg, time < 8 hr, route subcutaneous; settings: in vivo
[32] = Half life in Sprague-Dawley rat at 3 mg/kg, sc measured over 8 hrs by LC-MS/MS analysis; type: ADME, organism-based; settings: in vivo
[33] = Plasma concentration in Sprague-Dawley rat at 1.5 mg/kg/day, sc administered via infusion measured after 48 hrs post dose by LC-MS/MS analysis; type: ADME, organism-based
[34] = Drug level in Sprague-Dawley rat CSF at 1 mg/kg, sc administered as single dose measured after 1 hr post dose by LC-MS/MS analysis; type: ADME, organism-based, Cerebrospinal fluid; settings: read-out: Drug uptake
[35] = Plasma concentration in Sprague-Dawley rat at 15 mg/kg/day, sc administered via infusion measured after 12 hrs post dose by LC-MS/MS analysis; type: ADME, organism-based
[36] = biological target: CYP3A4 (Homo sapiens, UniProt P08684); assay: Inhibition of human CYP3A4 at 10 uM; type: ADME
CYP3A4, sequence (P08684 whole entry): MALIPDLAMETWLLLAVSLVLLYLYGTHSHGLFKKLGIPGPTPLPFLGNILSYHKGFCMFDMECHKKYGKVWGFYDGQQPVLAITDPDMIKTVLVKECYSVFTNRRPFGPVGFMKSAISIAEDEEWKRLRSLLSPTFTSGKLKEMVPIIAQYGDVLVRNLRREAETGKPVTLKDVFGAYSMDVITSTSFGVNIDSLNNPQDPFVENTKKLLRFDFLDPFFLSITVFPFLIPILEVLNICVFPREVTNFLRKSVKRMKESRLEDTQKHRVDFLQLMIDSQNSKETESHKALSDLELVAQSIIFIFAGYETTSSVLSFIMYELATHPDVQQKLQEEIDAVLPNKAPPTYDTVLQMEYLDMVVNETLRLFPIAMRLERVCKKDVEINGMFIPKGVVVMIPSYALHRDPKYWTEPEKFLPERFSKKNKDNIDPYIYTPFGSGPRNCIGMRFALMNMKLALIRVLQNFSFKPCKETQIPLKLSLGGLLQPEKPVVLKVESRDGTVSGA

[37] = biological target: Metabotropic glutamate receptor 4 (Homo sapiens, UniProt Q14833); assay: Antagonist activity at recombinant human mGlu4 receptor expressed in hamster AV12 cells co-expressing rat EAAT1/Galpha15 assessed as inhibition of glutamate induced increase in Ca2+ flux after 2.5 mins by Fluo-3 AM dye-based FLIPR assay; type: functional, cell-based

In the case of `COc1cccc(C(=O)N[C@H]2C[C@@](N)(C(=O)O)[C@@H]3[C@@H](C(=O)O)[C@@H]32)c1`, the concentration at 72 h [1] is reported as 25.2 nM, the concentration at 6 h [2] is reported as 1280 nM and the concentration at 6 h [3] is reported as 3840 nM. For the same molecule, the concentration at 72 h [4] was 3210 nM, the concentration at 1 h [5] was 2.48 nM and the inhibition at 10 µM [6] was 3.5%. The concentration at 12 h [7] was 143 nM, the inhibition at 10 µM [8] was 0% and the clearance [9] was 18.3 mL/min/kg. It also gave a concentration at 1 h [10] of 73.6 nM, an EC50 [11] greater than 25 µM and an EC50 [12] of 0.277 µM. For the same molecule, the concentration at 6 h [13] was 156 nM, the concentration at 72 h [14] was less than 7.5 nM and the IC50 [15] was greater than 12.5 µM. The concentration at 1 h [16] was 1510 to 1580 nM, the concentration at 72 h [17] was 361 nM and the fraction unbound [18] was 1. For the same molecule, the “inhibition (INH)” value [19] was “Not Active”, the concentration at 24 h [20] was 3170 nM and the AUC at 8 h [21] was 2.75 µM·h. It also gave a Ki [22] of 0.412 µM, a concentration at 48 h [23] of 95.1 nM and an Activity [24] of 32%. It also gave a concentration at 6 h [25] of 427 nM, a Drug metabolism [26] of less than 2.5 nM and a concentration at 72 h [27] of 1310 nM. For the same molecule, the IC50 [28] was greater than 12.5 µM, the concentration at 72 h [29] was 7.5 nM and the Activity [30] was 36%. For the same molecule, the AUC at 8 h [31] was 9.88 µM·h, the half-life [32] was 2.9 h and the concentration at 48 h [33] was 224 nM. The concentration at 1 h [34] was 12.5 to 22.5 nM, the concentration at 12 h [35] was 3070 nM and the inhibition at 10 µM [36] was 3.6%. It also gave an IC50 [37] greater than 12.5 µM.
